This is an account of results in ChEMBL document CHEMBL1150112, “Enhancement of contraction of rat mesenteric artery by acteoside: role of endothelial nitric oxide” (J Nat Prod, 2002).

Structures are written as SMILES. Activity calls are given as the source filed them. The rule behind the calls is not given here.

Test [1] has as its system Artery. The experiment in a line: Change in NS 1619-induced vasorelaxation in endothelium-denuded Sprague-Dawley rat mesenteric artery at 30 umol/L. It counts as functional, tissue-based.
For test [2], the system named is Artery. Kind of test: Attenuation of acetylcholine-induced vasorelaxation in endothelium-intact Sprague-Dawley rat mesenteric artery at 30 umol/L after 30 mins. It counts as functional, tissue-based.
Test [3] has as its system Artery. Kind of test: Attenuation of forskolin-induced vasorelaxation in endothelium-denuded Sprague-Dawley rat mesenteric artery at 30 umol/L. The format is functional, tissue-based.
The subject of test [4] is Artery. Kind of test: Change in hydroxylamine-induced vasorelaxation in endothelium-denuded Sprague-Dawley rat mesenteric artery at 30 umol/L after 30 mins. It counts as functional, tissue-based.
For test [5], the system named is Mesenteric artery. The experiment in a line: Potentiation of phenylepinephrine-induced contraction in endothelium-intact Sprague-Dawley rat mesenteric artery at 100 to 300 umol/L after 30 mins. It counts as functional, tissue-based.
Test [6] is described as follows: Vasorelaxant activity in endothelium-intact Sprague-Dawley rat vascular smooth muscle at > 100 umol/L. The format is functional.
The test system of test [7] is Mesenteric artery. Kind of test: Increase in phenylepinephrine-induced vessel tension in endothelium-intact Sprague-Dawley rat mesenteric artery at 30 umol/L in presence of tetraethylammonium. The format is functional, tissue-based.
Test [8] has as its system Mesenteric artery. The experiment in a line: Potentiation of phenylepinephrine-induced contraction in endothelium-intact Sprague-Dawley rat mesenteric artery at 30 umol/L after 30 mins in presence of NG-nitro-L-arginine methyl ester. The format is functional, tissue-based.
Test [9] relates to Mesenteric artery. Kind of test: Potentiation of phenylepinephrine-induced contraction in endothelium-intact Sprague-Dawley rat mesenteric artery at 30 umol/L after 30 mins. The format is functional, tissue-based.
The test system of test [10] is Mesenteric artery. The experiment in a line: Potentiation of phenylepinephrine-induced vessel tension in endothelium-intact Sprague-Dawley rat mesenteric artery at 30 umol/L in presence of pretreated indomethacin. The format is functional, tissue-based.
The subject of test [11] is Mesenteric artery. The experiment in a line: Enhancement of phenylepinephrine-induced contraction in endothelium-intact Sprague-Dawley rat mesenteric artery at 30 umol/L after 30 mins in presence of co-treated 1H-[1,2,4]oxadiazolo[…]quinoxalin-1-one. It counts as functional, tissue-based.
Test [12] has as its system Mesenteric artery. The experiment in a line: Potentiation of phenylepinephrine-induced contraction in endothelium-intact Sprague-Dawley rat mesenteric artery after 30 mins. The format is functional.
Test [13] has as its system Mesenteric artery. Kind of test: Potentiation of phenylepinephrine-induced contraction in endothelium-intact Sprague-Dawley rat mesenteric artery at 30 umol/L after 30 mins in presence of NG-nitro-L-arginine. The format is functional, tissue-based.
The subject of test [14] is Mesenteric artery. Kind of test: Potentiation of phenylepinephrine-induced contraction in endothelium-denuded Sprague-Dawley rat mesenteric artery at 30 umol/L after 30 mins. The format is functional, tissue-based.
Test [15] deals with Artery. Kind of test: Change in sodium nitroprusside-induced vasorelaxation in endothelium-denuded Sprague-Dawley rat mesenteric artery at 30 umol/L after 30 mins. The format is functional, tissue-based.

`C[C@@H]1O[C@@H](O[C@@H]2[C@@H](O)[C@H](OCCc3ccc(O)c(O)c3)O[C@H](CO)[C@H]2OC(=O)/C=C/c2ccc(O)c(O)c2)[C@H](O)[C@H](O)[C@H]1O`: the outcome in test [1], in [3], in test [4], in test [5], in [7] and in [8] was inactive. Moreover, the outcome in test [11], in test [13], in test [14] and in test [15] was inactive. Further, the result in [2], in [6], in test [9] and in test [10] was Active. Further, the Activity entry in [12] is “Dose-dependent effect”.
